Results published in patent US10689344B2, “Biphenylamide derivative Hsp90 inhibitors” (University of Kansas, priority 2013, dated 2020).

Experiments:
[1] = system: SKBr3 (estrogen receptor negative, HER2 over-expressing breast cancer cells); assay: Anti-proliferation assay (MTS/PMS, 72 h), SKBr3; format: cell-based; conditions: Homo sapiens
Method: (§1) Cells were maintained in a 1:1 mixture of Advanced DMEM/F12 (Gibco) supplemented with non-essential amino acids, L-glutamine (2 mM), streptomycin (500 μg/mL), penicillin (100 units/mL), and 10% FBS. Cells were grown to confluence in a humidified atmosphere (37° C., 5% CO2), seeded (2000/well, 100 μL) in 96-well plates, and allowed to attach overnight. Compound at varying concentrations in DMSO (1% DMSO final concentration) was added, and cells were returned to the incubator for 72 h. At 72 h, the number of viable cells was determined using an MTS/PMS cell proliferation kit (Promega) per the manufacturer's instructions. Cells incubated in 1% DMSO were used at 100% proliferation, and values were adjusted accordingly. IC50 values were calculated from separate experiments performed in triplicate using GraphPad Prism.
(§2) Anti-proliferative studies with the compounds described herein were performed against the SKBr3 (estrogen receptor negative, HER2 over-expressing breast cancer cells) and MCF-7 (estrogen receptor positive breast cancer cells) breast cancer cell lines. […] In some embodiments, in contrast to the novobiocin derivatives, which usually manifest better anti-proliferative activities against the SKBr3 cell line, the biphenyl derivatives described herein were more efficacious against the MCF-7 cell line. In general, all substitutions on the phenyl ring were determined to be beneficial, consistent with the existence of a hydrophobic pocket in this region of the Hsp90 C-terminal binding site.

[2] = system: MCF-7 (estrogen receptor positive breast cancer cells); assay: Anti-proliferation assay (MTS/PMS, 72 h), MCF-7; format: cell-based; conditions: Homo sapiens
Method: as §1, §2

[3] = SK-BR-3, Table 1, ortho, meta and para biphenyl cores
[4] = SK-BR-3, Table 6, para-para biphenyl core with substituted benzylamide
[5] = MCF7, Table 1, ortho, meta and para biphenyl cores
[6] = MCF7, Table 6, para-para biphenyl core with substituted benzylamide
[7] = SK-BR-3, Table 8, para-para biphenyl core with substituted biphenylamide group
[8] = MCF7, Table 8, para-para biphenyl core with substituted biphenylamide group

Structure (SMILES)	IC50 [1, 3] [µM]	IC50 [1, 4] [µM]	IC50 [2, 5] [µM]	IC50 [2, 6] [µM]	IC50 [1, 7] [µM]	IC50 [2, 8] [µM]
COc1ccc(C(=O)Nc2ccc(-c3ccc(OC4CCN(C)CC4)cc3)cc2)cc1 [Compound 41f, 4-methoxy-N-(4′-((1-methylpiperidin-4-yl)oxy)-[1,1′-biphenyl]-4-yl)benzamide]	0.49 ± 0.01	0.49 ± 0.01	0.65 ± 0.04	0.65 ± 0.04		
CN1CCC(Oc2ccc(-c3ccc(NC(=O)c4ccc(C(C)(C)C)cc4)cc3)cc2)CC1 [Compound 41g, 4-(tert-butyl)-N-(4′-((1-methylpiperidin-4-yl)oxy)-[1,1′-biphenyl]-4-yl)benzamide]	1.26 ± 0.37	1.26 ± 0.37	1.08 ± 0.08	1.08 ± 0.08		
CN1CCC(Oc2ccc(-c3ccc(NC(=O)c4cc(Cl)cc(Cl)c4)cc3)cc2)CC1 [Compound 41o, 3,5-dichloro-N-(4′-((1-methylpiperidin-4-yl)oxy)-[1,1′-biphenyl]-4-yl)benzamide]		0.81 ± 0.28		1.68 ± 0.13		
CN1CCC(Oc2ccc(-c3ccc(NC(=O)c4ccc(Cl)cc4Cl)cc3)cc2)CC1 [Compound 41p, 2,4-dichloro-N-(4′-((1-methylpiperidin-4-yl)oxy)-[1,1′-biphenyl]-4-yl)benzamide]		0.8 ± 0.22		1.37 ± 0.33		
CN1CCC(Oc2ccc(-c3ccc(NC(=O)c4ccccc4-c4ccccc4)cc3)cc2)CC1 [Compound 41q, N-(4′-((1-methylpiperidin-4-yl)oxy)-[1,1′-biphenyl]-4-yl)-[1,1′-biphenyl]-2-carboxamide]		6.26 ± 1.54		6.67 ± 0.83		
CN1CCC(Oc2ccc(-c3ccc(NC(=O)c4cccc(-c5ccccc5)c4)cc3)cc2)CC1 [Compound 41r, N-(4′-((1-methylpiperidin-4-yl)oxy)-[1,1′-biphenyl]-4-yl)-[1,1′-biphenyl]-3-carboxamide]		0.73 ± 0.07		1.15 ± 0.18	0.73 ± 0.07	1.15 ± 0.18
CN1CCC(Oc2ccc(-c3ccc(NC(=O)c4ccc(-c5ccccc5)cc4)cc3)cc2)CC1 [Compound 41s, N-(4′-((1-methylpiperidin-4-yl)oxy)-[1,1′-biphenyl]-4-yl)-[1,1′-biphenyl]-4-carboxamide]		4.59 ± 0.06		4.44 ± 0.6		
CN1CCC(Oc2ccc(-c3ccc(NC(=O)c4cc5ccccc5[nH]4)cc3)cc2)CC1 [Compound 47a, N-(4′-((1-methylpiperidin-4-yl)oxy)-[1,1′-biphenyl]-4-yl)-1H-indole-2-carboxamide]		0.64 ± 0.08		0.58 ± 0.02		
CN1CCC(Oc2ccc(-c3ccc(NC(=O)c4cc5ccccc5s4)cc3)cc2)CC1 [Compound 47b, N-(4′-((1-methylpiperidin-4-yl)oxy)-[1,1′-biphenyl]-4-yl)benzo[b]thiophene-2-carboxamide]		1.32 ± 0.23		2.01 ± 0.58		
COc1ccc(C(=O)Nc2ccc(-c3ccc(OC4CCN(C)CC4)cc3)cc2)cc1-c1ccccc1 [Compound 49a, 6-methoxy-N-(4′-((1-methylpiperidin-4-yl)oxy)-[1,1′-biphenyl]-4-yl)-[1,1′-biphenyl]-3-carboxamide]					0.51 ± 0.11	0.84 ± 0.01
COc1cccc(-c2cccc(C(=O)Nc3ccc(-c4ccc(OC5CCN(C)CC5)cc4)cc3)c2)c1 [Compound 49b, 3′-methoxy-N-(4′-((1-methylpiperidin-4-yl)oxy)-[1,1′-biphenyl]-4-yl)-[1,1′-biphenyl]-3-carboxamide]					0.81 ± 0.14	1.02 ± 0.08
COc1ccc(-c2cc(C(=O)Nc3ccc(-c4ccc(OC5CCN(C)CC5)cc4)cc3)ccc2OC)cc1 [Compound 49c, 4′,6-dimethoxy-N-(4′-((1-methylpiperidin-4-yl)oxy)-[1,1′-biphenyl]-4-yl)-[1,1′-biphenyl]-3-carboxamide]					0.63 ± 0.04	0.79 ± 0.13
COc1ccc(C(=O)Nc2ccc(-c3ccc(OC4CCN(C)CC4)cc3)cc2)cc1-c1cccc(OC(C)=O)c1 [Compound 49d, 2′-methoxy-5′-((4′-((1-methylpiperidin-4-yl)oxy)-[1,1′-biphenyl]-4-yl)carbamoyl)-[1,1′-biphenyl]-3-yl acetate]					0.27 ± 0.05	0.62 ± 0.07
COc1ccc(C(=O)Nc2ccc(-c3ccc(OC4CCN(C)CC4)cc3)cc2)cc1-c1ccc(OC(C)=O)cc1 [Compound 49e, 2′-methoxy-5′-((4′-((1-methylpiperidin-4-yl)oxy)-[1,1′-biphenyl]-4-yl)carbamoyl)-[1,1′-biphenyl]-4-yl acetate]					0.14 ± 0.01	0.64 ± 0.08
COc1ccc(C(=O)Nc2ccc(-c3ccc(OC4CCN(C)CC4)cc3)cc2)cc1-c1cccc(Cl)c1 [Compound 49f, 3′-chloro-6-methoxy-N-(4′-((1-methylpiperidin-4-yl)oxy)-[1,1′-biphenyl]-4-yl)-[1,1′-biphenyl]-3-carboxamide]					0.33 ± 0.03	0.32 ± 0.09
COc1ccc(C(=O)Nc2ccc(-c3ccc(OC4CCN(C)CC4)cc3)cc2)cc1-c1ccc(Cl)cc1 [Compound 49g, 4′-chloro-6-methoxy-N-(4′-((1-methylpiperidin-4-yl)oxy)-[1,1′-biphenyl]-4-yl)-[1,1′-biphenyl]-3-carboxamide]					1.06 ± 0.05	0.82 ± 0.13

Results, then the compound that gave them:

IC50 [1, 3] [µM]	IC50 [1, 4] [µM]	IC50 [2, 5] [µM]	IC50 [2, 6] [µM]	IC50 [1, 7] [µM]	IC50 [2, 8] [µM]	Structure (SMILES)
	1.94 ± 0.37		2.83 ± 0.69			CN1CCC(Oc2ccc(-c3ccc(NC(=O)c4cccc(Cl)c4)cc3)cc2)CC1 [Compound 41h, 3-chloro-N-(4′-((1-methylpiperidin-4-yl)oxy)-[1,1′-biphenyl]-4-yl)benzamide]
	2.87 ± 0.51		5.31 ± 0.7			COc1cccc(C(=O)Nc2ccc(-c3ccc(OC4CCN(C)CC4)cc3)cc2)c1 [Compound 41i, 3-methoxy-N-(4′-((1-methylpiperidin-4-yl)oxy)-[1,1′-biphenyl]-4-yl)benzamide]
	1.11 ± 0.42		1.03 ± 0.16			Cc1cc(C(=O)Nc2ccc(-c3ccc(OC4CCN(C)CC4)cc3)cc2)ccc1Cl [Compound 41j, 4-chloro-3-methyl-N-(4′-((1-methylpiperidin-4-yl)oxy)-[1,1′-biphenyl]-4-yl)benzamide]
	1.96 ± 0.24		2.28 ± 0.49			Cc1ccc(C(=O)Nc2ccc(-c3ccc(OC4CCN(C)CC4)cc3)cc2)cc1Cl [Compound 41k, 3-chloro-4-methyl-N-(4′-((1-methylpiperidin-4-yl)oxy)-[1,1′-biphenyl]-4-yl)benzamide]
	2.8 ± 0.18		3.35 ± 0.36			Cc1ccc(C(=O)Nc2ccc(-c3ccc(OC4CCN(C)CC4)cc3)cc2)cc1Br [Compound 41l, 3-bromo-4-methyl-N-(4′-((1-methylpiperidin-4-yl)oxy)-[1,1′-biphenyl]-4-yl)benzamide]
	0.93 ± 0.2		1.17 ± 0.2			Cc1ccc(C(=O)Nc2ccc(-c3ccc(OC4CCN(C)CC4)cc3)cc2)cc1I [Compound 41m, 3-iodo-4-methyl-N-(4′-((1-methylpiperidin-4-yl)oxy)-[1,1′-biphenyl]-4-yl)benzamide]
	1.2 ± 0.08		1.6 ± 0.16			CN1CCC(Oc2ccc(-c3ccc(NC(=O)c4ccc(Cl)c(Cl)c4)cc3)cc2)CC1 [Compound 41n, 3,4-dichloro-N-(4′-((1-methylpiperidin-4-yl)oxy)-[1,1′-biphenyl]-4-yl)benzamide]
	1.31 ± 0.18		2.07 ± 0.16			CN1CCC(Oc2ccc(-c3ccc(NC(=O)c4ccc5ncccc5c4)cc3)cc2)CC1 [Compound 45b, N-(4′-((1-methylpiperidin-4-yl)oxy)-[1,1′-biphenyl]-4-yl)quinoline-6-carboxamide]
